Test results reported in US5328823A, “Enzyme-based biosensors for detecting noble gases” (American Air Liquide, priority 1992, dated 1994).

What was measured:
Tyrosinase [1] = test: Gas biosensor diffusion cell, Tyrosinase/L-Tyrosine reaction monitored at 305 nm, Curlon Grade 861 film; format: biochemical, Mushroom; conditions: gas in upper chamber of diffusion cell, 25° C.; for maximum change in enzymatic activity, Reference Air: compared to air diffusion through the film; for maximum change in enzymatic activity, Reference Nitrogen: compared to nitrogen
From the text: Construction consists of coupling two 1-cm lightpath UV grade methacrylate covets with a ring of 100% silicone rubber (General Purpose Sealant, Dow Corning) applied on their outside rim. Before sealing with silicone, a 1-cm^2 square of a polymeric film of known permeabilities to the different gases is placed between the two cuvettes. Holes have been previously drilled in each covet (drill bit 7/64") to receive a septum (d=3 mm; h=8 mm; Supelco No. 3-3301M). 100% silicone rubber was applied around the septa to avoid possible leaks.
Tyrosinase/L-Tyrosine monitored at 305 nm
Enzyme: Tyrosinase (SIGMA No. T-7755) (Monophenol monooxygenase; Polyphenol oxidase; Catechol oxidase; Monophenol, dihydroxyphenylalanine: oxygen oxidoreductase; From Mushroom
Chamber 1 (upper) is flushed for 2 […] with 100% nitrogen (very low flow to prevent tearing of the polymeric film: line delivery pressure <5 psi) at ambient temperature (25° C.), using 22G11/2 needles (small gauge to reduce risks of leakage through holes in septa).
Chamber 2 (lower) is flushed in the same way as chamber 1.
Chamber 2 is then filled with 2.0 ml of N2 -saturated solution C, by means of a 3 cc syringe (previously purged with N2).
Before the spectrophotometric run, 20 cc of the appropriate gas (Air, N2, Ar, Kr, Xe) is passed through chamber 1 of each of the 3 diffusion cells simultaneously, by means of a 30 cc syringe.
Following immediately, the run starting time t0 is given by the simultaneous injections of 0.5 ml of N2 -saturated-solution B in chamber 2 of each diffusion cell. The 1 cc syringes used for sampling the 0.5 ml are previously purged with N2.
A selected example is given below for one of the enzymatic system/polymeric film tandems assayed. Given as well is the maximum change in enzymatic activity noted compared to the reaction resulting from air diffusion through the film, or compared to nitrogen. A sample graphic data output file is appended.
Polymeric film insert in diffusion cells: Curlon Grade 861 (CURWOOD).
Biochemical reaction (monitored at 305 nm): Tyrosinase/L-Tyrosine at 25° C. and optimal reaction conditions, gas in upper chamber of the diffusion cell being: […]

Tyrosinase [2] = test: Tyrosinase/L-tyrosine biosensing bag (Curlon Grade 861) placed in gas-packaged food packages, rate of colour change; format: biochemical, Mushroom
From the text: The above mentioned oxido-reductase system (tyrosinase/L-tyrosine) is placed inside a 3 cc bag by heat-sealing of the polymeric film used in protocol described above (Curlon Grade 861, Curwood).
The 3 cc bag is placed into a series of packages containing food products under different gas mixtures, which include neon, argon, krypton, xenon, oxygen, nitrogen and carbon dioxide. The relative rate of changing color of the device, that is the development of a pink-brown color, is monitored over time.
A similar series is run, but after holes have been punctured in the packages to simulate leaks. The rate of changing color is then monitored. Thus we have made a leak detection system.
In the same manner, the exchange of gases through the film of the packages and the change in respiration of fresh horticultural commodities can also be monitored. […] Preparation of a standard curve permits detection of each type of gas mix relative to the other, and also permits detection of a change in oxygen level caused by vegetable respiration.

β-D-Glucosidase = test: β-D-Glucosidase/p-Nitrophenyl-β-D-Glucopyranoside biosensing bag (PE 2 mil) in gas-packaged produce, rate of yellow colour change; format: biochemical, Almonds; conditions: packaged vegetables, compared with nitrogen packaged produce; acceleration rather than inhibition
From the text: The above mentioned hydrolase system (β-D-Glucosidase/p-Nitrophenyl-β-D-Glucopyranoside) is placed inside a 3 cc bag by heat-sealing of the polymeric film used in protocol described above (PE 2 mil).
The protocol followed is the same as described in the third detailed example of the invention, except for the fact that the colorigenic reaction observed is yellow, and is an acceleration rather than an inhibition. Thus, Kr packaged vegetables will produce a yellow color change in the device faster than will nitrogen packaged produce.

particulate sialidase = conditions: highly impure enzymes; the patent calls these results questionable; cited from earlier work
[3] = per atmosphere of added nitrous oxide; independent of oxygen partial pressure; cited from earlier work

SMILES | maximum change in enzymatic activity, Reference Air (Tyrosinase [1]) | maximum change in enzymatic activity, Reference Nitrogen (Tyrosinase [1]) | rate of changing color of the biosensing device (pink-brown) (Tyrosinase [2]; packaged vegetables, compared with the package under 100% N2) | rate of changing color of the biosensing device, case of a leak (Tyrosinase [2]; package under 100% gas, compared with 100% N2) | rate of yellow color change in the device (β-D-Glucosidase) | effect on activity of particulate sialidase (particulate sialidase) | inhibition per atmosphere of added gas [3]
[Ar] [Ar, argon] | -25% | -21% | turns color more slowly |  |  |  | 
[Kr] [Kr, krypton] | -35% | -32% |  | turns color more slowly | faster |  | 
[Xe] [Xe, xenon] | -30% | -26% |  |  |  | enhance the activity | 
FC(F)(F)C(Cl)Br (stereo not shown) [halothane] |  |  |  |  |  | enhance the activity | 
[N-]=[N+]=O [nitrous oxide] |  |  |  |  |  | enhance the activity | 1.9%
